Laboratory results published in patent publication US5314998A, “Organic solvent-soluble metal-azo and metal-azomethine dyes” (Minnesota Mining and Manufacturing Company, priority 1992, dated 1994).

Assays:
[1] = Thermogravimetric analysis, loss of pyridine ligand; assay type: physicochemical
[2] = reported to decompose, apparently without melting; cited from earlier work
[3] = Differential Scanning Calorimeter scan, melting behaviour; settings: Differential Scanning Calorimeter scan of analytically pure compound
Description: Melting points of the metal complexes were determined using a Thomas-Hoover melting point apparatus or by differential scanning calorimetry at a heating rate of 5° C. per minute.

[4] = Solubility in heptane (absorbance at maximum of saturated solution), chromium metal-azo complexes; assay type: physicochemical; settings: room temperature (22° C.)
Description: The samples were prepared by shaking the dye in heptane for several hours, allowing the samples to sit overnight, and filtering through a plug of glass wool to remove particulates.

[5] = Solubility in heptane (absorbance at maximum), four-coordinate platinum metal-azo complexes; assay type: physicochemical; settings: ambient temperature
Text: ^b result obtained by measuring in a 1 cm cell and dividing result by
^c estimate based on fitting the spectrum in the 510-550 nm region.

Compound | Temperature of 50% Loss of Pyridine Ligand [1] [°C] | DSC melting behaviour [3] | Absorbance at Maximum in Heptane/1 mm Cell [4] | also measured
[Cu+2].[O-]c1ccccc1N=Nc1ccccc1[O-].c1ccncc1 [Compound 8, [[2,2-azobis[phenolato]](-2)-N,O,O](pyridine)copper] | 133 |  |  | decomposition temperature [2]: 310 °C
CCCCC(CCCC)c1ccncc1.[Cu+2].[O-]c1ccccc1N=Nc1ccccc1[O-] [Compound 9, [[2,2-azobis[phenolato]](-2)-N,O,O](4-(5-nonylpyridine))copper] | 148 | has a classic melting transition associated with organic-like compounds |  | 
CCCCC(CCCC)c1ccncc1.CCCCN(CCCC)S(=O)(=O)c1ccc([O-])c(N=Nc2c([O-])ccc3ccccc23)c1.[Cu+2] [Compound 11, [1-[5-N,N-dibutylsulfonamido-2-hydroxyphenyl]azo-2-naphthalenolato(-2)](4-(5-nonylpyridine))copper] | 223 | has a classic melting transition associated with organic-like compounds |  | 
CC(=O)[CH-]C(C)=O.[Cr+3].[O-]c1ccccc1N=Nc1ccccc1[O-].c1ccncc1 [Compound 28, [[2,2-azobis[phenolato]](-2)-N,O,O](pyridine)(2,4-pentanedionato-O,O)chromium] |  |  | 0.022 | 
CC(=O)C=C(C)[O-].CCc1ccncc1.[Cr+3].[O-]c1ccccc1N=Nc1ccccc1[O-] [Compound 31, [[2,2-azobis[phenolato]](-2)-N,O,O](2,4-pentanedionato-O,O)(4-ethylpyridine)chromium] |  |  | 0.644 | 
CC(=O)C=C(C)[O-].CCOC(=O)c1cccnc1.[Cr+3].[O-]c1ccccc1N=Nc1ccccc1[O-] [Compound 32, [[2,2-azobis[phenolato]](-2)-N,O,O](2,4-pentanedionato-O,O)(ethyl nicotinate)chromium] |  |  | 0.362 | 
[O-]c1ccccc1N=Nc1ccccc1[O-].[Pt+2].c1ccncc1 [Pt(DHAB)Py, [[2,2azobis[phenolato]](2)-N,O,O](pyridine)platinum, reference compound] |  |  |  | Absorbance at Maximum in Heptane/1 mm Cell [5]: 0.41
[1-[5-N,N-dibutylsulfonamido-2-hydroxyphenyl]azo-2-naphthalenolato(-2)](pyridine)copper [Compound 10] | 180 | does not exhibit a clean melt |  | 
[[2,2-azobis[phenolato]](-2)-N,O,O](2,4-pentanedionato-O,O)(ethyl isonicotinate)chromium [Compound 33] |  |  | 0.634 | 
[[2,2-azobis[phenolato]](-2)-N,O,O](4-n-octylpyridine)platinum [Compound 17] |  |  |  | Absorbance at Maximum in Heptane/1 mm Cell [5]: 2.49
